Test results published in patent US4638070A, “Heterocyclic amino-alcohol derivatives” (Continental Pharma, priority 1980, dated 1987).

Assays:
[1] = Acute toxicity, oral, LD50 (Litchfield and Wilcoxon); details: mouse, in vivo, fasted male mice, confidence limits p=95% in brackets
Method: (1) The acute toxicity was determined on fasted male mice. The tested substances were orally administered and LD50 values (lethal dose for 50% of animals) were calculated according to the method of Litchfield and Wilcoxon (J. Pharmacol. exp. Ther. 96, 94-113, 1949). These LD50 values are given in mg/kg and also, when possible, with their confidence limits for p=95%.

[2] = tested on: unanaesthetized, hypertension-suffering rat; assay: Antihypertensive activity (systolic arterial pressure), oral; assay type: in vivo; details: 60 mg/kg, hypertensive rat, 3 hours
Method: (2) The antihypertensive activity was measured on unanaesthetized, hypertension-suffering rat. The tested substances were orally given at a rate of 60 mg/kg. The systolic arterial pressure was measured every 30 minutes for 2 hours before and for 3 hours after the tested product was given. Results are expressed as follows: […]
O: no reduction of arterial pressure.
+: reduction lower than 10 mm Hg.
++: reduction of 10 to 20 mm Hg.
+++: reduction higher than 20 mm Hg.

femoral artery = assay: Vasodilator activity, femoral artery (technique of perfused paw); assay type: in vivo; parameters: key: O: no action; +: slight activity; ++: effect equal to half the effect of papaverine; +++: effect equal to that of papaverine; ++++: effect higher than that of papaverine; details: intra-arterial, 30 mg/kg, anaesthetized dog, vs papaverine at same dose
Method: (3) The vasodilator activity was measured at the level of femoral artery on anaesthetized dog (technique of perfused paw). The tested substances were given intra-arterially at the rate of 30 mg/kg. Results are expressed with respect to papaverine tested at the same dose.
++: effect equal to half the effect of papaverine.
+++: effect equal to that of papaverine.
++++: effect higher than that of papaverine.

[3] = tested on: guinea-pig ileum (acetylcholine contractions); assay: Antispasmodic activity in vitro, contractions caused by acetylcholine; details: added 15 minutes before spasm-producing agent
Method: (§1) (4) The antispasmodic activity was measured in vitro, on guinea-pig ileum, the contractions of which were caused by histammne (Hist.), acetylcholine (Achol) or barium chloride (BaCl2). The tested products were added to perfusion bath 15 minutes before the spasm-producing agents.
(§2) The dose is given in micograms (μg) per ml of bath causing complete spasm inhibition.

[4] = tested on: guinea-pig ileum (histamine contractions); assay: Antispasmodic activity in vitro, contractions caused by histamine; details: added 15 minutes before spasm-producing agent
Method: as §1, §2

Row | Molecule | LD50 [1] [mg/kg] | ANTIHYPERTENSIVE ACTIVITY [2] | VASODILATOR ACTIVITY (femoral artery) | ANTISPASMODIC ACTIVITY ACHOL (dose causing complete spasm inhibition) [3] [μg per ml] | ANTISPASMODIC ACTIVITY HIST. (dose causing complete spasm inhibition) [4] [μg per ml]
1 | CCCCCCCC(=O)OC(c1ccc2c(c1)CCS2)C(C)NCCCCc1ccccc1 (stereo not shown) [No 133] | 2600 | +++ (reduction higher than 20 mm Hg) | – | – | –
2 | COCCOCCCNC(C)C(O)c1ccc2c(c1)CCCS2 (stereo not shown) [No 81] | – | +++ (reduction higher than 20 mm Hg) | ++ | 16.7 | 16.7
3 | CCCCCCCCNC(C)C(OC(=O)C(C)C)c1ccc2c(c1)CCCS2 (stereo not shown) [No 139] | – | +++ (reduction higher than 20 mm Hg) | – | – | –
4 | Cc1ccc(CCCCNC(C)C(O)c2ccc3c(c2)CC(C)O3)cc1 (stereo not shown) [No 90] | – | +++ (reduction higher than 20 mm Hg) | ++++ | 1.7 | 0.8
5 | CC(C(O)c1ccc2c(c1)CCC2)N1CCOC(c2ccccc2)C1C (stereo not shown) [No 177] | – | ++ (reduction of 10 to 20 mm Hg) | – | 1.7 | 1.7
6 | 1-(2-methyl-2,3-dihydro-5-benzo[b]furanyl-2-[4-(p-chlorophenyl)butylamino]- 1-propanol [No 65] | – | +++ (reduction higher than 20 mm Hg) | ++++ | 1.7 | 1.7
7 | CC(NCCCCc1ccccc1)C(OC(=O)C1CCC1)c1ccc2c(c1)CCS2 (stereo not shown) [No 132] | 1900 | +++ (reduction higher than 20 mm Hg) | – | – | –
8 | Cc1ccc(CCCCNC(C)C(O)c2ccc3c(c2)CCC3)cc1 (stereo not shown) [No 166] | – | ++ (reduction of 10 to 20 mm Hg) | +++ | 0.8 | 0.8
9 | C#CC(C)(C)NC(C)C(O)c1ccc2c(c1)CCCS2 (stereo not shown) [No 44] | – | +++ (reduction higher than 20 mm Hg) | ++ | 8.3 | 16.7
10 | C[C@H](NCCCCc1ccccc1)[C@@H](O)c1ccc2c(c1)CCS2 (relative stereo) [No 98] | – | + (reduction lower than 10 mm Hg) | – | – | –
11 | CC(CCCc1ccccc1)NC(C)C(O)c1ccc2c(c1)CCCS2 (stereo not shown) [No 42] | – | +++ (reduction higher than 20 mm Hg) | +++ | 1.7 | 1.7
12 | CC(NCCCC(=O)c1ccc(F)cc1)C(O)c1ccc2c(c1)CCC2 (stereo not shown) [No 175] | – | +++ (reduction higher than 20 mm Hg) | ++ | 0.8 | 0.8
13 | CC(=O)OC(c1ccc2c(c1)CCS2)C(C)NCCCCc1ccccc1 (stereo not shown) [No 112] | – | +++ (reduction higher than 20 mm Hg) | +++ | 3.3 | 0.3
14 | CC(=O)O[C@@H](c1ccc2c(c1)CCS2)[C@H](C)NCCCCc1ccccc1 (relative stereo) [No 113] | – | + (reduction lower than 10 mm Hg) | – | – | –
15 | CC(NCCCCc1ccccc1)C(OC(=O)C1CCCC1)c1ccc2c(c1)CCS2 (stereo not shown) [No 137] | ~1750 | +++ (reduction higher than 20 mm Hg) | – | – | –
16 | CC(NCCOc1ccc(C#N)cc1)C(O)c1ccc2c(c1)CCS2 (stereo not shown) [No 85] | – | +++ (reduction higher than 20 mm Hg) | +++ | 16.7 | 8.3
17 | COCCOCCCNC(C)C(O)c1ccc2c(c1)CCS2 (stereo not shown) [No 129] | 250 | +++ (reduction higher than 20 mm Hg) | – | – | –
18 | Cc1ccc(CCNC(C)C(O)c2ccc3c(c2)CC(C)S3)cc1 (stereo not shown) [No 71] | – | +++ (reduction higher than 20 mm Hg) | +++ | 0.8 | 0.8

Row | Molecule | LD50 [1] [mg/kg] | ANTIHYPERTENSIVE ACTIVITY [2] | VASODILATOR ACTIVITY (femoral artery) | ANTISPASMODIC ACTIVITY ACHOL (dose causing complete spasm inhibition) [3] [μg per ml] | ANTISPASMODIC ACTIVITY HIST. (dose causing complete spasm inhibition) [4] [μg per ml]
19 | CCC(NCCOc1ccccc1)C(O)c1ccc2c(c1)CCS2 (stereo not shown) [No 126] | > 4000 | +++ (reduction higher than 20 mm Hg) | – | – | –
20 | 1-(2,3-dihydro-5-benzo[b]thienyl)-2-(4-phenylbutylamino)-1-propanol [Example 18] | – | +++ (reduction higher than 20 mm Hg) | ++++ | 0.33 | 0.8
21 | CC1Cc2cc(C(O)C(C)NCCCc3ccccc3)ccc2O1 (stereo not shown) [No 69] | – | +++ (reduction higher than 20 mm Hg) | ++ | 16.7 | 8.3
22 | CC1Cc2cc(C(O)C(C)NCCCc3ccccc3)ccc2S1 (stereo not shown) [No 67] | – | +++ (reduction higher than 20 mm Hg) | +++ | 1.7 | 1.7
23 | CCCCCCCCNC(C)C(OC(=O)CC)c1ccc2c(c1)CCCS2 (stereo not shown) [No 131] | > 4000 | + (reduction lower than 10 mm Hg) | – | – | –
24 | CCCCOCCCNC(C)C(O)c1ccc2c(c1)CC(C)O2 (stereo not shown) [No 74] | – | + (reduction lower than 10 mm Hg) | ++ | 8.3 | 8.3
25 | COCCOCCCNC(C)C(O)c1ccc2c(c1)CCC2 (stereo not shown) [No 179] | 250 | +++ (reduction higher than 20 mm Hg) | – | – | –
26 | CCC(NCCCCc1ccccc1)C(O)c1ccc2c(c1)CCCS2 (stereo not shown) [No 135] | > 4000 | +++ (reduction higher than 20 mm Hg) | – | – | –
27 | CC(C(O)c1ccc2c(c1)CCCS2)N1CCOC(c2ccccc2)C1C (stereo not shown) [No 110] | – | + (reduction lower than 10 mm Hg) | 0 | 3.3 | 0.8
28 | CC(NCCCCc1ccccc1)C(OC(=O)C1CCCCC1)c1ccc2c(c1)CCS2 (stereo not shown) [No 138] | > 4000 | +++ (reduction higher than 20 mm Hg) | – | – | –
29 | CC1Cc2cc(C(O)C(C)NCCCOc3ccccc3)ccc2S1 (stereo not shown) [No 64] | – | +++ (reduction higher than 20 mm Hg) | +++ | 1.7 | 1.7
30 | CCCCCCCCCCCCCCNC(C)C(O)c1ccc2c(c1)CCCS2 (stereo not shown) [No 76] | > 4000 | + (reduction lower than 10 mm Hg) | – | – | –
31 | Cc1ccc(CCCCNC(C)C(O)c2ccc3c(c2)CCCCS3)cc1 (stereo not shown) [No 30] | – | +++ (reduction higher than 20 mm Hg) | +++ | 0.8 | 1.7
32 | CCCCCCCCNC(C)C(O)c1ccc2c(c1)SCCS2 (stereo not shown) [No 101] | – | ++ (reduction of 10 to 20 mm Hg) | +++ | 0.8 | 0.8
33 | CCCCCCCCNC(C)C(OC(=O)CCC)c1ccc2c(c1)CCCS2 (stereo not shown) [No 134] | > 4000 | +++ (reduction higher than 20 mm Hg) | – | – | –
34 | CC1Cc2cc(C(O)C(C)NCCCN3CCCC3)ccc2O1 (stereo not shown) [No 62] | 885 | – | 0 | > 16.7 | > 16.7
35 | CCCCCCCCNC(C)C(O)c1ccc2c(c1)CCCC2 (stereo not shown) [No 170] | ~2300 | – | +++ | 0.8 | 1.7
36 | CC(NCCCCc1ccccc1)C(O)c1ccc2c(c1)CCCC2 (stereo not shown) [No 171] | – | + (reduction lower than 10 mm Hg) | +++ | 0.8 | 0.8
